Here are results for 10 compounds from patent US10196390B2, “TYK2 inhibitors and uses thereof” (Nimbus Lakshmi, Inc., priority 2014, dated 2019).

Structures are written as SMILES. Where only a bound is given, the exact number is not on record here.

Test [1] deals with TYK2 (Homo sapiens (Human), UniProt P29597). Put plainly: Tyk2 activity inhibition assay (radioactive kinase assay / Caliper assay). In kind it is biochemical. The protocol:
Peptide substrate, [[…]], (20 μM) is prepared in reaction buffer (20 mM Hepes pH 7.5, 10 mM MgCl2, 1 mM EGTA, 0.02% Brij35, 0.02 mg/mL BSA, […], 2 mM DTT, 1% DMSO. TYK2 (Invitrogen) kinase is added, followed by compounds in DMSO. 33PATP is added to initiate the reaction in ATP at 10 μM. Kinase reaction is incubated for 120 min at room temp and reactions are spotted onto P81 ion exchange paper (Whatman #3698-915), and then washed extensively in 0.75% phosphoric acid, prior to reading the radioactivity counts. For JAK2 (Invitrogen) kinase assay the peptide substrate poly[Glu:Tyr](4:1), 0.2 mg/ml is used, in the reaction carried out the same as for TYK2.
(§1) The caliper machine employs an off chip mobility shift assay to detect phosphorylated peptide substrates from kinase assays, using microfluidics technology. The assays are carried out at ATP concentration equivalent to the ATP Km, and at 1 mM ATP. Compounds are serially diluted in DMSO then further diluted in assay buffer (25 mM HEPES, pH 7.5, 0.01% Brij-35, 0.01% Triton, 0.5 mM EGTA). 5 ul of diluted compound was added into wells first, then 10 ul of enzyme mix was added into wells, followed by 10 uL of substrate mix (peptide and ATP in 10 mM MgCl2) to start reaction. Reaction was incubated at 28° C. for 25 min and then added 25 ul stop buffer (100 mM HEPES, 0.015% Brij-35, 50 mM EDTA), followed by reading with Caliper. JAK2 at 1 nM final concentration and TYK2 at 9.75 nM are from Carna, and substrates used are ATP at 20 and 16 uM, respectively. JAK2 assay uses peptide 22 and TYK2 uses peptide 30 (Caliper), each at 3 uM.

Test [2] concerns the target JAK2 (Homo sapiens (Human), UniProt O60674). Description: JAK2 activity inhibition assay (radioactive kinase assay / Caliper assay). In kind it is biochemical. Conditions: read-out: JAK2 Ki. The protocol:
as §1, with “The assays are carried out at ATP concentration equivalent to the ATP Km, and at 1 mM ATP.” left out, “Caliper.” for “Caliper. JAK2 at 1 nM final concentration and TYK2 at 9.75 nM are from Carna, and substrates used are ATP at 20 and 16 uM, respectively. JAK2 assay uses peptide 22 and TYK2 uses peptide 30 (Caliper), each at 3 uM.”

TYK2, sequence (P29597 whole entry): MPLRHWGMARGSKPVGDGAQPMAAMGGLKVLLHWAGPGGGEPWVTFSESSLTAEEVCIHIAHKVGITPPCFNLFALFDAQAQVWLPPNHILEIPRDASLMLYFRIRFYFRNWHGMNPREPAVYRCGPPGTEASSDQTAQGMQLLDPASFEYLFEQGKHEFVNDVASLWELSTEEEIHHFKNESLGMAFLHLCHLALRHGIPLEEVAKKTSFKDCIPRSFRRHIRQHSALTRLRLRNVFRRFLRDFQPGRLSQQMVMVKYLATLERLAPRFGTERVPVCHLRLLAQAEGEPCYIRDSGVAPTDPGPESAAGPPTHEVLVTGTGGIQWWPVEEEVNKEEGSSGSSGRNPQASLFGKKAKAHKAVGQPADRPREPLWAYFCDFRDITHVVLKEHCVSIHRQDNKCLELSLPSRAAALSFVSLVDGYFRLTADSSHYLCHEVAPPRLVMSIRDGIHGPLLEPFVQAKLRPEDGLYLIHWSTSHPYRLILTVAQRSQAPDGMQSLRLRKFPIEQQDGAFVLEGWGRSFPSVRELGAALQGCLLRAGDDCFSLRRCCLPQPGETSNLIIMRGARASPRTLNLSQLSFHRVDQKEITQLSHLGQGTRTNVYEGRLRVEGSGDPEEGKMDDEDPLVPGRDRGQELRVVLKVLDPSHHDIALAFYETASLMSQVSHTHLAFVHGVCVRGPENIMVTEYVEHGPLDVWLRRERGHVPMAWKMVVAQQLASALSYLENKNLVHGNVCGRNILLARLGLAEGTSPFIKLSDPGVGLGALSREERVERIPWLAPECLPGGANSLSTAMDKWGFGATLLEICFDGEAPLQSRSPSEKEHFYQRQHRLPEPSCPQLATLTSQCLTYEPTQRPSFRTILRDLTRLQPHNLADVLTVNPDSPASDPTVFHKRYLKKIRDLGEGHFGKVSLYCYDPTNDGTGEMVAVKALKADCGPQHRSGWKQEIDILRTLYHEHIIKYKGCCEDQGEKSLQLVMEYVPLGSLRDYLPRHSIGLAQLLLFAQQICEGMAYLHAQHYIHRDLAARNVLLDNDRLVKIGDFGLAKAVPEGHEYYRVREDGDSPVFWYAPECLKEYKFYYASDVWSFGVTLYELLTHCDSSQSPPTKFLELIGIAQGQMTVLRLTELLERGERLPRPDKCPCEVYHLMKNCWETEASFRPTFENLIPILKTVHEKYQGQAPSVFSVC
JAK2, sequence (O60674 whole entry): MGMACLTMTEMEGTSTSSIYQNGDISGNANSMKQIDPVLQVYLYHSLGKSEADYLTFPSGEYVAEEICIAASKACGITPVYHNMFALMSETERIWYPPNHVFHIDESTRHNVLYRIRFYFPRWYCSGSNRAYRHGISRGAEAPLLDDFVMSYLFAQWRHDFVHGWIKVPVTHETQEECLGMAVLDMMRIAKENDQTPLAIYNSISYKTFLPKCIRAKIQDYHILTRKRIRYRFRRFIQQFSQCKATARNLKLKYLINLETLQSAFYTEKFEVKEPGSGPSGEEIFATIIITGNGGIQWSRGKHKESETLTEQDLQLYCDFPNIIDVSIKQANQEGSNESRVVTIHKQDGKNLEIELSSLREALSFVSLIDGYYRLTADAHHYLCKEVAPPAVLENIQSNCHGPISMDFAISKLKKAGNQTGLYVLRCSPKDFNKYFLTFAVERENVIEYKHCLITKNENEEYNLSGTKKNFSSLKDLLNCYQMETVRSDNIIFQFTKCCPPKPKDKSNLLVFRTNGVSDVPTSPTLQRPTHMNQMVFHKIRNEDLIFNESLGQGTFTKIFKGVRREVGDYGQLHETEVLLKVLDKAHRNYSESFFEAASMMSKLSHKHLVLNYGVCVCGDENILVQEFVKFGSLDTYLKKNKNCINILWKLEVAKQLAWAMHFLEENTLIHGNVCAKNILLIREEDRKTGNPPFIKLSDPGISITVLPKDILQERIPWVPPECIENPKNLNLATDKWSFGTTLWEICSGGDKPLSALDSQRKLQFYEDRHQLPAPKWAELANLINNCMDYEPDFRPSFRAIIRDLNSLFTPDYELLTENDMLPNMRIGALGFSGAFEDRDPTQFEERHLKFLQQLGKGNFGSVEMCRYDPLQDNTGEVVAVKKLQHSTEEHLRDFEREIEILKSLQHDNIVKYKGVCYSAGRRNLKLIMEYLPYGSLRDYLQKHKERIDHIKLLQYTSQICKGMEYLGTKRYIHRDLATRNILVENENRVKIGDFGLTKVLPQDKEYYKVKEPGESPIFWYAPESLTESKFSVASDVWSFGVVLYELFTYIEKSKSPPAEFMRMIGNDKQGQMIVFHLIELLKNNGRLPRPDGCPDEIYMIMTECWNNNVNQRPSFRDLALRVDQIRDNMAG

`O=C(Cc1ccc(Nc2nc(-c3c(F)cccc3F)nc3c2C(=O)NC3)cc1)N[C@@H]1CCCNC1` [Compound I-61, (R)-2-(4-((2-(2,6-difluorophenyl)-5-oxo-6,7-dihydro-5H-pyrrolo[3,4-d]pyrimidin-4-yl)amino)phenyl)-N-(piperidin-3-yl)acetamide]: the figures for the inhibitory constant (Ki) in test [1] and in test [2] were less than 10 nM and 100 to 1000 nM, respectively.
The corresponding values for `O=C1NCc2nc(-c3c(F)cccc3F)nc(Nc3ccc(CC(=O)N4CC5(COC5)C4)cc3)c21` [Compound I-62, 2-(2,6-difluorophenyl)-4-((4-(2-oxo-2-(2-oxa-6-azaspiro[3.3]heptan-6-yl)ethyl)phenyl)amino)-6,7-dihydro-5H-pyrrolo[3,4-d]pyrimidin-5-one] are less than 10 nM and 100 to 1000 nM.
Take `C[C@H](CO)NC(=O)Cc1ccc(Nc2nc(-c3c(F)cccc3F)nc3c2C(=O)NC3)cc1` [Compound I-63, (R)-2-(4-((2-(2,6-difluorophenyl)-5-oxo-6,7-dihydro-5H-pyrrolo[3,4-d]pyrimidin-4-yl)amino)phenyl)-N-(1-hydroxypropan-2-yl)acetamide]: the inhibition constant (Ki) in test [1] was less than 10 nM; in test [2], 100 to 1000 nM.
The matching figures for `O=C1NCc2nc(-c3c(F)cccc3F)nc(Nc3cnn(CC(=O)N4CCC[C@H]4CO)c3)c21` [Compound I-68, (S)-2-(2,6-difluorophenyl)-4-((1-(2-(2-(hydroxymethyl)pyrrolidin-1-yl)-2-oxoethyl)-1H-pyrazol-4-yl)amino)-6,7-dihydro-5H-pyrrolo[3,4-d]pyrimidin-5-one]: 10 to 100 nM and more than 1000 nM.
The matching figures for `CCNC(=O)Cn1cc(Nc2nc(-c3c(F)cccc3F)nc3c2C(=O)NC3)cn1` [Compound I-69, 2-(4-((2-(2,6-difluorophenyl)-5-oxo-6,7-dihydro-5H-pyrrolo[3,4-d]pyrimidin-4-yl)amino)-1H-pyrazol-1-yl)-N-ethylacetamide]: 10 to 100 nM and more than 1000 nM.
The corresponding values for `C[C@H](CO)NC(=O)Cn1cc(Nc2nc(-c3c(F)cccc3F)nc3c2C(=O)NC3)cn1` [Compound I-70, (R)-2-(4-((2-(2,6-difluorophenyl)-5-oxo-6,7-dihydro-5H-pyrrolo[3,4-d]pyrimidin-4-yl)amino)-1H-pyrazol-1-yl)-N-(1-hydroxypropan-2-yl)acetamide] are 10 to 100 nM and more than 1000 nM.
On to `O=C(O)Cn1cc(Nc2nc(-c3c(F)cccc3F)nc3c2C(=O)NC3)cn1` [Compound I-71, 2-(4-((2-(2,6-difluorophenyl)-5-oxo-6,7-dihydro-5H-pyrrolo[3,4-d]pyrimidin-4-yl)amino)-1H-pyrazol-1-yl)acetic Acid], for which the results for the Ki in test [1] and in test [2] were 10 to 100 nM and more than 1000 nM, respectively.
Regarding `O=C(Cc1ccc(Nc2nc(-c3c(F)cccc3F)nc3c2C(=O)NC3)cc1)NCC1CNC1` [Compound I-72, N-(azetidin-3-ylmethyl)-2-(4-((2-(2,6-difluoro-phenyl)-5-oxo-6,7-dihydro-5H-pyrrolo[3,4-d]pyrimidin-4-yl)amino)-phenyl)acetamide], the inhibitory constant (Ki) in test [1] was less than 10 nM; in test [2] it was 100 to 1000 nM.
Take `O=C(Cc1ccc(Nc2nc(-c3c(F)cccc3F)nc3c2C(=O)NC3)cc1)N[C@@H]1CCNC1` [Compound I-73, (R)-2-(4-((2-(2,6-difluorophenyl)-5-oxo-6,7-dihydro-5H-pyrrolo[3,4-d]pyrimidin-4-yl)amino)phenyl)-N-(pyrrolidin-3-yl)acetamide]: the Ki in test [1] is less than 10 nM; in test [2] it was 100 to 1000 nM.
Turning to `C[C@@H](CO)NC(=O)Cc1ccc(Nc2nc(-c3c(F)cccc3F)nc3c2C(=O)NC3)cc1` [Compound I-74, (S)-2-(4-((2-(2,6-difluorophenyl)-5-oxo-6,7-dihydro-5H-pyrrolo[3,4-d]pyrimidin-4-yl)amino)phenyl)-N-(1hydroxypropan-2-yl)acetamide], the results for the Ki in test [1] and in test [2] were less than 10 nM and 100 to 1000 nM, respectively.

One may read the Ki as the dissociation constant of the complex between target and ligand, obtained from inhibition or displacement.
